# Test results from patent publication US9845512B2, “Screening assay employing Dex and GDF8” (RIGEL PHARMACEUTICALS, INC., priority 2010, dated 2017).
# Tested on: endogenous MuRF1
# Test: Endogenous MuRF1 expression in HepG2 cells by Taqman RT-PCR
# Type: cell-based, human
# Experimental: Cultured HepG2 cells were exposed to 1 μM dexamethasone, 10 μM dexamethasone, 100 ng/ml GDF8, 100 ng/ml TGFβ1, and 10 μM dexamethasone+100 ng/ml GDF8, and expression of endogenous MuRF1 was evaluated by RT-PCR using Taqman RT-PCR assay. […] 10 μM dexamethasone induced expression of endogenous MuRF1 2.5× over the no treatment control, and 100 ng/ml GDF8 induced expression of endogenous MuRF1 1.8× over the no treatment control.
# MuRF1 induction is observable at four hours of treatment, as compared to controls.
Compound,induction of endogenous MuRF1 expression over the no treatment control (10 μM dexamethasone alone),induction of endogenous MuRF1 expression over the no treatment control (100 ng/ml GDF8 alone)
C[C@@H]1C[C@H]2[C@@H]3CCC4=CC(=O)C=C[C@]4(C)[C@@]3(F)[C@@H](O)C[C@]2(C)[C@@]1(O)C(=O)CO [dexamethasone],2.5 ×,
GDF8: secreted TGFβ protein family member that inhibits muscle differentiation and growth; ligand for the myostatin receptor,,1.8 ×
